Assays:
[1] = system: normal lung fibroblasts (MRC-5); assay: Antiproliferative assay (MTT reduction), MRC-5 fibroblasts; format: cell-based, human; design: key to antiproliferative activity in words, MRC-5: IC50 values > 100 µM were considered inactive; details: for IC50: Homo sapiens, MRC5, 72 h, MRC-5 normal lung fibroblasts, 3 days treatment, MTT, mean ± SD; for antiproliferative activity in words, MRC-5: MRC-5 fibroblasts
Method: (§1) All human cell lines used in this work were purchased from the American Type Culture Collection (ATCC, Manasas, VA, USA). […] All media were supplemented with 10% heat-inactivated FBS, 100 IU/mL penicillin and 100 µg/mL streptomycin. Cells were grown in a humidified incubator with 5% CO2 in air at 37 °C. For the antiproliferative assay, cells were plated at a density of 5 × 10^4 cells/mL. Cells were seeded in 96-well plates (100 µL/well). One day after seeding, cells were treated with medium containing the compounds at concentrations ranging from 0 up to 100 µM during 3 days. The compounds were dissolved in DMSO (1% final concentration) and complete medium. Untreated cells (medium containing 1% DMSO) were used as 100% viability controls. […] Each concentration was tested in sextuplicate and experiments were repeated 2 times. Cell viability was determined by means of the MTT reduction assay at the end of the incubation with the products. […] The software used was OriginPro 8.1 [23].

[2] = system: gastric epithelial adenocarcinoma (AGS) cells; assay: Antiproliferative assay (MTT reduction), AGS cells; format: cell-based, human; design: key to antiproliferative activity in words, AGS: IC50 values > 100 µM were considered inactive; details: for IC50: Homo sapiens, 72 h, AGS gastric adenocarcinoma cells, 3 days treatment, MTT, mean ± SD
Method: (§2) All human cell lines used in this work were purchased from the American Type Culture Collection (ATCC, Manasas, VA, USA). Normal lung MRC-5 fibroblasts (CCL-171), SK-MES-1 lung cancer cells (HTB-58) and J82 bladder carcinoma cells (HTB-1) were grown as monolayers in minimum essential Eagle medium (MEM) with Earles’s salts, 2 mM L-glutamine and 1.5 g/L sodium bicarbonate. Gastric adenocarcinoma AGS cells (CRL-1739) were grown as monolayers in Ham F-12 medium containing 1 mM L-glutamine and 1.5 g/L sodium bicarbonate. All media were supplemented with 10% heat-inactivated FBS, 100 IU/mL penicillin and 100 µg/mL streptomycin. Cells were grown in a humidified incubator with 5% CO2 in air at 37 °C. For the antiproliferative assay, cells were plated at a density of 5 × 10^4 cells/mL. Cells were seeded in 96-well plates (100 µL/well). One day after seeding, cells were treated with medium containing the compounds at concentrations ranging from 0 up to 100 µM during 3 days. The compounds were dissolved in DMSO (1% final concentration) and complete medium. Untreated cells (medium containing 1% DMSO) were used as 100% viability controls. […] Each concentration was tested in sextuplicate and experiments were repeated 2 times. Cell viability was determined by means of the MTT reduction assay at the end of the incubation with the products. The results were transformed to percentage of controls and the IC50 value was obtained adjusting the dose-response curve to a sigmoidal model. The software used was OriginPro 8.1 [23].

[3] = system: lung cancer (SK-MES-1) cells; assay: Antiproliferative assay (MTT reduction), SK-MES-1 cells; format: cell-based, human; details: for IC50: Homo sapiens, 72 h, SK-MES-1 lung cancer cells, 3 days treatment, MTT, mean ± SD; for antiproliferative activity in words, SK-MES-1: SK-MES-1 cells
Method: as §1

[4] = system: bladder carcinoma (J82) cells; assay: Antiproliferative assay (MTT reduction), J82 cells; format: cell-based, human; design: key to antiproliferative activity in words, J82: IC50 values > 100 µM were considered inactive; details: for IC50: Homo sapiens, 72 h, J82 bladder carcinoma cells, 3 days treatment, MTT, mean ± SD
Method: as §2

[5] = system: MCF-7, Hela and liver cancer 7721 cells; design: method as in PMID 21345546; details: range over MCF-7, Hela and liver cancer 7721 cells; read-out: IC50 values (cytotoxicity); cited from earlier work

Row | Structure (SMILES) | IC50 [1] | IC50 [2] | IC50 [3] | IC50 [4] | IC50 [5] | antiproliferative activity in words, MRC-5 [1] | antiproliferative activity in words, SK-MES-1 [3] | antiproliferative activity in words, AGS ([2]; AGS cells) | antiproliferative activity in words, J82 ([4]; J82 cells)
1 | COc1ccc(-n2cc(CCC(=O)OC[C@]3(C)CCC[C@]4(C)c5ccc(C(C)C)cc5CCC34)nn2)cc1 (some centres unmarked) [Compound 11, 18-(3-(1-(4-Anisidyl)-1H-1,2,3-triazol-4-yl)propanoyloxy)-8,11,13-abietatriene] | > 100 µM | > 100 µM | > 100 µM | > 100 µM |  |  |  |  | 
2 | Cc1ccc(S(=O)(=O)n2cc(CCC(=O)OC[C@]3(C)CCC[C@]4(C)c5ccc(C(C)C)cc5CCC34)nn2)cc1 (some centres unmarked) [Compound 15, 18-(3-(1-(4-Toluenesulfonyl)-1H-1,2,3-triazol-4-yl)propanoyloxy)-8,11,13-abietatriene] | 82.9 ± 4.5 µM | 74.9 ± 3.7 µM | 84.4 ± 5.1 µM | > 100 µM |  |  |  |  | 
3 | CC(C)c1ccc2c(c1)CCC1[C@](C)(COC(=O)CCCCc3cn(-c4cccc(Cl)c4)nn3)CCC[C@]21C (some centres unmarked) [Compound 14, 18-(5-(1-(3-Chlorophenyl)-1H-1,2,3-triazol-4-yl)pentanoyloxy)-8,11,13-abietatriene] | > 100 µM | > 100 µM | > 100 µM | > 100 µM |  |  |  |  | 
4 | CN(C)CCN1C(=O)c2cccc3cc(N)cc(c23)C1=O [amonafide] |  |  |  |  | 1.68 to 4.27 µM |  |  |  | 
5 | CC(C)c1ccc2c(c1)CCC1[C@](C)(COC(=O)CCc3cn(Cc4ccccc4)nn3)CCC[C@]21C (some centres unmarked) [Compound 7, 18-(3-(1-Benzyl-1H-1,2,3-triazol-4-yl)propanoyloxy)-8,11,13-abietatriene] | > 100 µM | 36.7 ± 1.5 µM | 39.7 ± 2.7 µM | 25.6 ± 1.9 µM |  | inactive |  |  | 
6 | CC(C)c1ccc2c(c1)CCC1[C@](C)(C(=O)OCc3cn(-c4ccccc4)nn3)CCC[C@]21C (some centres unmarked) [Compound 1, 18-((1-Phenyl-1H-1,2,3-triazol-4-yl)methyl)-8,11,13-abietatrienoate] | 85.8 ± 4.6 µM | 79.9 ± 4.8 µM | 77.3 ± 4.7 µM | 46.3 ± 2.3 µM |  |  |  |  | 
7 | CC(C)c1ccc2c(c1)CCC1[C@](C)(COC(=O)CCc3cn(-c4ccccc4)nn3)CCC[C@]21C (some centres unmarked) [Compound 5, 18-(3-(1-Phenyl-1H-1,2,3-triazol-4-yl)propanoyloxy)-8,11,13-abietatriene] | 17.1 ± 0.6 µM | 44.5 ± 1.9 µM | 6.1 ± 0.3 µM | 83.3 ± 3.3 µM |  |  |  |  | 
8 | CC(C)c1ccc2c(c1)CCC1[C@](C)(COC(=O)CCCCc3cn(Cc4ccccc4)nn3)CCC[C@]21C (some centres unmarked) [Compound 8, 18-(5-(1-Benzyl-1H-1,2,3-triazol-4-yl)pentanoyloxy)-8,11,13-abietatriene] | > 100 µM | 35.9 ± 1.7 µM | 37 ± 2.6 µM | 26.8 ± 1.8 µM |  | inactive |  |  | 
9 | CC(C)c1ccc2c(c1)CCC1[C@](C)(COC(=O)CCc3cn(CSc4ccccc4)nn3)CCC[C@]21C (some centres unmarked) [Compound 9, 18-(3-(((1-Phenylthio)methyl)-1H-1,2,3-triazol-4-yl)propanoyloxy)-8,11,13-abietatriene] | 73.3 ± 3.7 µM | 47.7 ± 2.9 µM | 43.6 ± 2.9 µM | 49.9 ± 2.9 µM |  |  |  |  | 
10 | CC(C)c1ccc2c(c1)CCC1[C@](C)(C(=O)OCc3cn(CSc4ccccc4)nn3)CCC[C@]21C (some centres unmarked) [Compound 3, 18-((((1-Phenylthio)methyl)-1H-1,2,3-triazol-4-yl)methyl)-8,11,13-abietatrienoate] | > 100 µM | 94.4 ± 5.4 µM | > 100 µM | > 100 µM |  | inactive | inactive |  | 
11 | CC(C)c1ccc2c(c1)CCC1[C@](C)(C(=O)OCCc3cn(CSc4ccccc4)nn3)CCC[C@]21C (some centres unmarked) [Compound 4, 18-(2-(((1-Phenylthio)methyl)-1H-1,2,3-triazol-4-yl)ethyl)-8,11,13-abietatrienoate] | 50.2 ± 3.1 µM | 66 ± 4.4 µM | 28.9 ± 2.1 µM | 28.1 ± 1.7 µM |  |  |  |  | 
12 | CC(C)c1ccc2c(c1)CCC1[C@](C)(COC(=O)CCc3cn(-c4cccc(Cl)c4)nn3)CCC[C@]21C (some centres unmarked) [Compound 13, 18-(3-(1-(3-Chlorophenyl)-1H-1,2,3-triazol-4-yl)propanoyloxy)-8,11,13-abietatriene] | > 100 µM | > 100 µM | > 100 µM | > 100 µM |  |  |  |  | 
13 | COc1cc([C@@H]2c3cc4c(cc3[C@@H](O[C@@H]3O[C@@H]5CO[C@@H](C)O[C@H]5[C@H](O)[C@H]3O)[C@H]3COC(=O)[C@H]23)OCO4)cc(OC)c1O [Etoposide, reference compound] |  | 0.58 ± 0.02 µM |  | 3.49 ± 0.16 µM |  |  |  |  | 
14 | CC(C)c1ccc2c(c1)CCC1[C@](C)(COC(=O)CCCCc3cn(CSc4ccccc4)nn3)CCC[C@]21C (some centres unmarked) [Compound 10] | > 100 µM | 58.9 ± 3.4 µM | 42.7 ± 2.9 µM | 33.9 ± 1.7 µM |  |  |  |  | 
15 | COc1ccc(-n2cc(CCCCC(=O)OC[C@]3(C)CCC[C@]4(C)c5ccc(C(C)C)cc5CCC34)nn2)cc1 (some centres unmarked) [Compound 12, 18-(5-(1-(4-Anisidyl)-1H-1,2,3-triazol-4-yl)pentanoyloxy)-8,11,13-abietatriene] | > 100 µM | > 100 µM | > 100 µM | > 100 µM |  |  |  |  | 
16 | Cc1ccc(S(=O)(=O)n2cc(CCCCC(=O)OC[C@]3(C)CCC[C@]4(C)c5ccc(C(C)C)cc5CCC34)nn2)cc1 (some centres unmarked) [Compound 16, 18-(5-(1-(4-Toluenesulfonyl)-1H-1,2,3-triazol-4-yl)pentanoyloxy)-8,11,13-abietatriene] | 68.8 ± 4.5 µM | 56.9 ± 3.3 µM | 74.2 ± 5.4 µM | 75 ± 6.1 µM |  |  |  |  | 
17 | CC(C)c1ccc2c(c1)CCC1[C@](C)(C(=O)OCCc3cn(-c4ccccc4)nn3)CCC[C@]21C (some centres unmarked) [Compound 2, 18-(2-(1-Phenyl-1H-1,2,3-triazol-4-yl)ethyl)-8,11,13-abietatrienoate] | > 100 µM | 90.2 ± 5.4 µM | > 100 µM | 76.3 ± 5.9 µM |  | inactive | inactive |  | 
18 | CC(C)c1ccc2c(c1)CCC1[C@](C)(COC(=O)CCCCc3cn(-c4ccccc4)nn3)CCC[C@]21C (some centres unmarked) [Compound 6, 18-(5-(1-Phenyl-1H-1,2,3-triazol-4-yl)pentanoyloxy)-8,11,13-abietatriene] | > 100 µM | > 100 µM | > 100 µM | > 100 µM |  | inactive | inactive | inactive | inactive
